Where “and” joins values, the source holds several entries; their conditions need not be identical. Equal values may be shown once. Read-outs that look alike come from different tables or passages of the source.
Columns and labels:
HBV rcDNA = assay: Dual agent combination in HepDE19 cells, rcDNA by Quantigene 2.0 bDNA assay (Examples 5-8); assay type: cell-based, HBV; HepDE19 (HepG2 human hepatocarcinoma derived); details: for ADDITIVE INHIBITION: Expt 3; for inhibition at 0.002 µM: TAF 0.002 μM alone; for inhibition at 0.007 µM: TAF 0.007 μM alone; for inhibition at 0.02 µM: TAF 0.020 μM alone; for inhibition at 0.06 µM: TAF 0.060 μM alone; for inhibition at 0.005 µM: TAF 0.005 μM alone; for inhibition at 0.01 µM: TAF 0.010 μM alone; for inhibition at 0.04 µM: TAF 0.040 μM alone; for inhibition at 0.08 µM: TAF 0.080 μM alone; for inhibition at 0.16 µM: TAF 0.160 μM alone; for inhibition at 0.32 µM: TAF 0.320 μM alone
Experimental: In vitro dual agent combination studies were conducted using the method of Prichard and Shipman 1990 (Prichard M N, Shipman C, Jr. 1990. Antiviral Res 14:181-205). The HepDE19 cell culture system is a HepG2 (human hepatocarcinoma) derived cell line that supports HBV DNA replication and cccDNA formation under control the control of a CMV Tet-off promoter system (Guo et al. 2007. J Virol 81:12472-84). HepDE19 (50,000 cells/well) were plated in 96 well collagen-coated tissue-culture treated microtiter plates in DMEM/F12 medium supplemented with 10% fetal bovine serum+1% penicillin-streptomycin with tetracycline (1 μg/mL) and incubated in a humidified incubator at 37° C. and 5% CO2 overnight. Next day, the cells were switched to fresh medium without tetracycline and incubated for 4 hrs at 37° C. and 5% CO2. The cells were switched to fresh medium and treated with inhibitor A and inhibitor B, at concentration range spanning their respective EC50 values. […] The two inhibitors were tested both singly as well as in combinations in a checkerboard fashion such that each concentration of inhibitor A was combined with each concentration of inhibitor B to determine their combination effects on inhibition of rcDNA production. There were four replicates of each concentration combination in each experiment. The plates were incubated for 7 days in a humidified incubator at 37° C. and 5% CO2. The level of rcDNA present in the wells was measured using a Quantigene 2.0 bDNA assay kit (Affymetrix, Santa Clara, Calif.) with HBV specific custom probe set (genotype D ayw) and according to the manufacturer's instructions and read using a luminescence plate reader and the relative luminescence units (RLU) data generated from each well was calculated as % inhibition of the untreated control wells and analyzed using the MacSynergy II program to determine whether the combinations were synergistic, additive or antagonistic using the interpretive guidelines established by Prichard and Shipman (Prichard M N, Shipman C, Jr. 1990. […] Each experiment was repeated at least three times and the averages and standard deviations of individual determinations was calculated to derive the conclusion. Concurrently, in each experiment, the effect of inhibitor combinations on cell viability was assessed using replicate plates in triplicates that were used to determine the ATP content as a measure of cell viability using the Cell-Titer Glo reagent (Promega, Madison, Wis.) as per the manufacturer's instructions.

HepG2.2.15 cells = assay type: cell-based, human; details: Cmpd 2 μM: 0.01, 0.0032, 0.001, 0.0003, 0.0001, 0
Description: The combination results were completed in duplicate with each assay consisting of 4 technical repeats.
The combination results were completed in duplicate with each assay consisting of 4 technical repeats. In this assay system, the combination results in additive inhibition of HBV DNA.

[1] = Hepatitis B virus, HepDE19, read-out: AVERAGE % INHIBITION, Expt 1
[2] = Hepatitis B virus, HepDE19, read-out: AVERAGE % INHIBITION, Expt 2
[3] = Hepatitis B virus, HepDE19, read-out: AVERAGE % INHIBITION, Expt 3
[4] = Hepatitis B virus, HepDE19, read-out: AVERAGE % INHIBITION, Expt 4

## C=C1[C@H](CO)[C@@H](O)C[C@@H]1n1cnc2c(=O)[nH]c(N)nc21 [ETV, entecavir]
HBV rcDNA
  SYNERGY PLOT (99%) Bonferroni Adj. 55%: 0
HBV rcDNA; ETV 0.0003 μM alone
  ADDITIVE INHIBITION: 28.28
HBV rcDNA; ETV 0.001 μM alone
  ADDITIVE INHIBITION: 38.31
HBV rcDNA; ETV 0.003 μM alone
  ADDITIVE INHIBITION: 62.92
HBV rcDNA; ETV 0.008 μM alone
  ADDITIVE INHIBITION: 88.06
HBV rcDNA; Hepatitis B virus, HepDE19, Expt 3, ETV 0.0003 μM alone
  inhibition at 0.0003 µM: 28.3%
HBV rcDNA; Hepatitis B virus, HepDE19, Expt 3, ETV 0.001 μM alone, read-out: AVERAGE % INHIBITION
  inhibition at 0.001 µM: 38.3%
HBV rcDNA; Hepatitis B virus, HepDE19, Expt 3, ETV 0.003 μM alone, read-out: AVERAGE % INHIBITION
  inhibition at 0.003 µM: 62.9%
HBV rcDNA; Hepatitis B virus, HepDE19, Expt 3, ETV 0.008 μM alone
  inhibition at 0.008 µM: 88.1%
HBV rcDNA; Hepatitis B virus, HepDE19, combination studies with Cmpd 1, read-out: Avg. Inhibitor B EC50
  EC50: 1 nM
HepG2.2.15 cells; ETV 3.17E−05 μM
  Average percent of cell viability vs control: 101.92%

## CC(C)OC(=O)[C@H](C)N[P@](=O)(CO[C@H](C)Cn1cnc2c(N)ncnc21)Oc1ccccc1 [TAF, tenofovir alafenamide]
HBV rcDNA; [1]
  inhibition at 0.002 µM: -55.3%
  inhibition at 0.007 µM: -30.2%
  inhibition at 0.02 µM: -1.17%
  inhibition at 0.06 µM: 67%
HBV rcDNA; [2]
  inhibition at 0.002 µM: 9.84%
  inhibition at 0.007 µM: 24.9%
  inhibition at 0.02 µM: 65.5%
  inhibition at 0.06 µM: 89.4%
HBV rcDNA; Hepatitis B virus, HepDE19, read-out: AVERAGE % INHIBITION, Expt 3, TAF 0.001 μM alone
  inhibition at 0.001 µM: -134%
HBV rcDNA; Hepatitis B virus, HepDE19, read-out: AVERAGE % INHIBITION, Expt 3, TAF 0.003 μM alone
  inhibition at 0.003 µM: -49.2%
HBV rcDNA; [3]
  inhibition at 0.005 µM: -42.3%
  inhibition at 0.01 µM: -48.4%
  inhibition at 0.02 µM: -34.3%
  inhibition at 0.04 µM: 37%
  inhibition at 0.08 µM: 57.1%
  inhibition at 0.16 µM: 88%
  inhibition at 0.32 µM: 94.8%
HBV rcDNA; Hepatitis B virus, HepDE19, read-out: AVERAGE % INHIBITION, Expt 4, TAF 0.001 μM alone
  inhibition at 0.001 µM: 9.66%
HBV rcDNA; Hepatitis B virus, HepDE19, read-out: AVERAGE % INHIBITION, Expt 4, TAF 0.003 μM alone
  inhibition at 0.003 µM: -0.11%
HBV rcDNA; [4]
  inhibition at 0.005 µM: -1.36%
  inhibition at 0.01 µM: 0.94%
  inhibition at 0.02 µM: 36.6%
  inhibition at 0.04 µM: 61.8%
  inhibition at 0.08 µM: 57.2%
  inhibition at 0.16 µM: 83.6%
  inhibition at 0.32 µM: 95.9%
HBV rcDNA; Hepatitis B virus, HepDE19, read-out: Avg. Inhibitor B EC50
  EC50: 44 nM
HepG2.2.15 cells; TAF 0.0002 μM
  Average percent of cell viability vs control: 103.95%
HepG2.2.15 cells; TAF 0.0006 μM
  Average percent of cell viability vs control: 104.32%
HepG2.2.15 cells; TAF 0.0020 μM
  Average percent of cell viability vs control: 103.73%
HepG2.2.15 cells; TAF 0.0064 μM
  Average percent of cell viability vs control: 101.18%
HepG2.2.15 cells; TAF 0.0201 μM
  Average percent of cell viability vs control: 101.33%
HepG2.2.15 cells; TAF 0.0634 μM
  Average percent of cell viability vs control: 103.56%
HepG2.2.15 cells; TAF 0.2002 μM
  Average percent of cell viability vs control: 96.48%
HepG2.2.15 cells; TAF 0.6329 μM
  Average percent of cell viability vs control: 80.67%
HepG2.2.15 cells; TAF 2.0 μM
  Average percent of cell viability vs control: 88.67%

## COCCCOc1cc2c(nc1OC)-c1cc(=O)c(C(=O)O)cn1[C@H](C(C)C)C2 [Compound 2]
HepG2.2.15 cells; ETV 0 μM
  Average percent of cell viability vs control: 92.68% and 81.35% and 91.36% and 92.57% and 80.37%
HepG2.2.15 cells; TAF 0 μM
  Average percent of cell viability vs control: 104.89% and 104.08% and 103.79% and 101.80% and 99.27%
